{
  "source": "patent US20250345391A1",
  "about": "“COMPOSITIONS AND METHODS FOR THE TREATMENT OF SEPSIS” (Children's Hospital Medical Center, priority 2022, published 2025)",
  "tested_on": "TNFα, IL-1β, IL-6, IL-10, KC, MIP-1α",
  "assay": "Plasma levels of cytokines after CLP sepsis (multiplex array)",
  "format": "in vivo, Male C57BL/6 mice",
  "details": "6 h after CLP, vs vehicle",
  "source_text": "The investigation conformed to the National Institutes of Health Guide for the Care and Use of Laboratory Animals (Eighth Edition, 2011) and was approved by the Institutional Animal Care and Use Committee of the Cincinnati Children's Hospital Medical Center. Male C57BL/6 mice were obtained from Charles River Laboratories International, Inc. (Wilmington, MA). Mice were used at 3-5 months of age to mimic the equivalent for human ranges from 20-25 years (29). Male mice only were chosen for the experimentation to avoid interference from female hormonal fluctuations in sepsis responses during the estrous cycle. Mice were housed in pathogen-free conditions under a 10-h light/14-h dark cycle with free access to food and water. Mice were anesthetized with 2.0% isoflurane in 50% oxygen and polymicrobial sepsis was induced by cecal ligation and puncture (CLP) (30). After a midline laparotomy, the cecum was exteriorized, ligated and punctured twice with a 23-G needle. The cecum was then returned into the peritoneal cavity and the abdominal incision was closed. After the procedure, mice were randomly assigned to three treatment groups: a vehicle-treated group received distilled water (200 μl/mouse) intraperitoneally (i.p.); a 100 μg colivelin-treated group received the colivelin at 100 μg/kg i.p., and a 200 μg colivelin-treated group received the colivelin at 200 μg/kg i.p. at 1 h after CLP. The intraperitoneal injection was chosen to allow for a rapid uptake and bioavailability of the peptide. All groups of mice also received fluid resuscitation (35 ml/kg normal saline solution subcutaneously) immediately after, at 3 h and 12 h after the CLP procedure. To minimize pain at the surgical incision site, lidocaine hydrochloride (1%, 4 mg/kg total dose) was applied locally immediately after the procedure. […] Mice were then sacrificed at 0, 6 and 18 h after CLP. Blood, lungs, kidneys, liver, and thoracic aortas were collected for biochemical assays. Plasma levels of tumor necrosis factor-α (TNFα), interleukin (IL)-1β, IL-6, IL-10, keratinocytes-derived chemokine (KC), and macrophage inflammatory proteins (MIP-1α) were used as indices of the systemic inflammatory response and were evaluated by a commercially available multiplex array system (Milliplex, Millipore Corporation, Billerica, MA). Plasma levels of endoglin, intercellular adhesion molecule-1 (ICAM-1), P-selectin, proprotein convertase subtilisin/kexin type 9 (PCSK9), and angiopoietin-2 (Ang 2) were used as indices of endothelial injury and were evaluated by a commercially available multiplex array system (R&D Systems, Minneapolis, MN). Plasma levels of syndecan-1 were used as indices of glycocalyx damage and were evaluated by a mouse syndecan-1 sandwich-type enzyme-linked immunosorbent assay (ELISA) kit (Boster Biological Technology Co., California, US). Assays were performed using the protocols recommended by the manufacturer.",
  "key": {"[1]": {"details": "colivelin 100 or 200 μg/kg i.p. at 1 h after CLP, dose-independent"}, "[2]": {"details": "colivelin 100 or 200 μg/kg i.p., trend towards reduction"}},
  "data": [
    {"substance": "Colivelin (SALLRSIPAPAGASRLLLLTGEIDLP)", "values": [
      {"measurement": "Plasma levels of IL-10", "setting": "[1]", "result": "significantly decreased"},
      {"measurement": "Plasma levels of MIP-1α", "setting": "[1]", "result": "significantly decreased"},
      {"measurement": "Plasma levels of TNF-α", "setting": "[1]", "result": "significantly decreased"},
      {"measurement": "Plasma levels of IL-1β", "setting": "[2]", "result": "not statistically different"},
      {"measurement": "Plasma levels of IL-6", "setting": "[2]", "result": "not statistically different"},
      {"measurement": "Plasma levels of KC", "setting": "colivelin at 200 μg/kg i.p. at 1 h after CLP", "result": "significantly reduced"}
    ]}
  ]
}
